From patent US12227495B2, “Herbicidal compounds” (SYNGENTA CROP PROTECTION AG, priority 2018, dated 2025)

Columns and labels:
Assay type in all cases: in vivo
Conditions in all cases: evaluated after 13 days
Solanum nigrum (SOLNI) [1] = assay: Post-emergence herbicide test, glasshouse, percentage damage
Procedure, shortened: (§1)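 Compounds are applied as aqueous sprays at 500 g/ha, unless otherwise stated, either one day after sowing or to 8-day-old plants. Injury is assessed after 13 days and expressed on a 1-5 scale, where 5 means 81-100% damage.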

[2] = tested on: Echinochloa crus-galli (ECHCG); assay: as above
Procedure, shortened: as §1

[3] = tested on: Amaranthus retoflexus (AMARE); assay: as above
Procedure, shortened: as §1

Lolium perenne (LOLPE) [4] = assay: as above
Procedure, shortened: as §1

[5] = tested on: Ipomoea hederacea (IPOHE); assay: as above
Procedure, shortened: as §1

Setaria faberi (SETFA) [6] = assay: as above
Procedure, shortened: as §1

Solanum nigrum (SOLNI) [7] = assay: Pre-emergence herbicide test, glasshouse, percentage damage
Procedure, shortened: as §1

[8] = tested on: Echinochloa crus-galli (ECHCG); assay: as above
Procedure, shortened: as §1

[9] = tested on: Amaranthus retoflexus (AMARE); assay: as above
Procedure, shortened: as §1

Lolium perenne (LOLPE) [10] = assay: as above
Procedure, shortened: as §1

[11] = tested on: Ipomoea hederacea (IPOHE); assay: as above
Procedure, shortened: as §1

Setaria faberi (SETFA) [12] = assay: as above
Procedure, shortened: as §1

| Compound | percentage damage caused to the plant, SOLNI (Solanum nigrum (SOLNI) [1]; 1000 g/ha) | percentage damage caused to the plant, ECHCG ([2]; 1000 g/ha) | percentage damage caused to the plant, AMARE ([3]; 1000 g/ha) | percentage damage caused to the plant, LOLPE (Lolium perenne (LOLPE) [4]; 1000 g/ha) | percentage damage caused to the plant, IPOHE ([5]; 1000 g/ha) | percentage damage caused to the plant, SETFA (Setaria faberi (SETFA) [6]; 1000 g/ha) | Pre-emergence Test SOLNI percentage damage (five point scale) (Solanum nigrum (SOLNI) [7]; rate 1000 g/ha) | Pre-emergence Test ECHCG percentage damage (five point scale) ([8]; rate 1000 g/ha) | Pre-emergence Test AMARE percentage damage (five point scale) ([9]; rate 1000 g/ha) | Pre-emergence Test LOLPE percentage damage (five point scale) (Lolium perenne (LOLPE) [10]; rate 1000 g/ha) | Pre-emergence Test IPOHE percentage damage (five point scale) ([11]; rate 1000 g/ha) | Pre-emergence Test SETFA percentage damage (five point scale) (Setaria faberi (SETFA) [12]; rate 1000 g/ha) | other results |
| --- | --- | --- | --- | --- | --- | --- | --- | --- | --- | --- | --- | --- | --- |
| Fc1cccc(Oc2ccc(Br)cn2)c1-c1cc(C(F)F)no1 [Compound A41] | 5 (5=81-100%) | 5 (5=81-100%) | 5 (5=81-100%) | 5 (5=81-100%) | 5 (5=81-100%) | 5 (5=81-100%) | 5 (5=81-100%) | 5 (5=81-100%) | 5 (5=81-100%) | 5 (5=81-100%) | 3 (3=41-60%) | 5 (5=81-100%) | – |
| Fc1cc(Cl)cnc1Oc1cccc(Cl)c1-c1cc(C(F)F)no1 [Compound A42] | – | – | – | – | – | – | – | – | – | – | – | – | percentage damage caused to the plant, SOLNI (Solanum nigrum (SOLNI) [1]; 250 g/ha): 5 (5=81-100%); percentage damage caused to the plant, ECHCG ([2]; 250 g/ha): 4 (4=61-80%); percentage damage caused to the plant, AMARE ([3]; 250 g/ha): 5 (5=81-100%); percentage damage caused to the plant, LOLPE (Lolium perenne (LOLPE) [4]; 250 g/ha): 5 (5=81-100%); percentage damage caused to the plant, IPOHE ([5]; 250 g/ha): 4 (4=61-80%); percentage damage caused to the plant, SETFA (Setaria faberi (SETFA) [6]; 250 g/ha): 5 (5=81-100%); Pre-emergence Test SOLNI percentage damage (five point scale) (Solanum nigrum (SOLNI) [7]; rate 250 g/ha): 4 (4=61-80%); Pre-emergence Test ECHCG percentage damage (five point scale) ([8]; rate 250 g/ha): 5 (5=81-100%); Pre-emergence Test AMARE percentage damage (five point scale) ([9]; rate 250 g/ha): 5 (5=81-100%); Pre-emergence Test LOLPE percentage damage (five point scale) (Lolium perenne (LOLPE) [10]; rate 250 g/ha): 5 (5=81-100%); Pre-emergence Test IPOHE percentage damage (five point scale) ([11]; rate 250 g/ha): 3 (3=41-60%); Pre-emergence Test SETFA percentage damage (five point scale) (Setaria faberi (SETFA) [12]; rate 250 g/ha): 5 (5=81-100%) |
| Fc1cc(Cl)cnc1Oc1ccccc1-c1cc(C(F)F)no1 [Compound A43] | 5 (5=81-100%) | 4 (4=61-80%) | 5 (5=81-100%) | 5 (5=81-100%) | 4 (4=61-80%) | 5 (5=81-100%) | 5 (5=81-100%) | 5 (5=81-100%) | 5 (5=81-100%) | 5 (5=81-100%) | 4 (4=61-80%) | 5 (5=81-100%) | – |
| Fc1cc(Cl)cnc1Oc1cccc(Br)c1-c1cc(C(F)F)no1 [Compound A44] | 5 (5=81-100%) | 5 (5=81-100%) | 5 (5=81-100%) | 5 (5=81-100%) | 5 (5=81-100%) | 5 (5=81-100%) | 5 (5=81-100%) | 5 (5=81-100%) | 5 (5=81-100%) | 5 (5=81-100%) | 5 (5=81-100%) | 5 (5=81-100%) | – |
| O=[N+]([O-])c1cccc(Oc2ncc(Cl)cc2F)c1-n1cc(C(F)(F)F)cn1 [Compound A46] | 5 (5=81-100%) | 3 (3=41-60%) | 5 (5=81-100%) | 3 (3=41-60%) | 2 (2=21-40%) | 4 (4=61-80%) | 1 (1=0-20%) | 4 (4=61-80%) | 4 (4=61-80%) | 1 (1=0-20%) | 1 (1=0-20%) | 5 (5=81-100%) | – |
